Among the data in patent US8466145B2, “Dipeptidyl peptidase IV inhibitors” (Orchid Chemicals & Pharmaceuticals Limited, priority 2009, dated 2013) are inhibition, melting point and IC50 values, retold here.

Data set [1] has as its target T1, human recombinant Dipeptidyl peptidase IV enzyme (hrDPP IV) (Homo sapiens, UniProt P27487).
T1 construct: purchased R&D systems
Briefly: DPP IV assay, cleavage of H-Gly-Pro-AMC by human recombinant DPP-IV enzyme. The note with it: for inhibition at 0.3 µM: 300 nM compound concentration. Format: biochemical. The protocol: DPP IV activity was determined by the cleavage rate of 7-amino 4-methylcoumarin (AMC) from the substrate H-Gly-Pro-AMC. In brief, the assay was conducted by adding 3 ng of human recombinant Dipeptidyl peptidase IV enzyme (hrDPP IV, available commercially from R&D systems) in 70 μL of the assay buffer (25 mM HEPES, 140 mM NaCl and 1% BSA, pH 7.8) to a 96 well black flat bottom microtitre plate. Test compounds were added as 10 μL additions to all wells except blank and total activity wells. After incubation of test substance with enzyme for 60 minutes at room temperature, 10 μL of 100 μM substrate H-Gly-Pro-AMC was added. After mixing, the plate was left for 20 minutes at room temperature. Then the reaction was terminated by addition of 10 μL of 25% glacial acetic acid. Fluorescence was measured using Spectra Max Gemini XS (Molecular Devices, USA) at an excitation filter of 360 nm and emission filter of 460 nm.
Test compounds dissolved in DMSO were diluted with assay buffer at different concentrations and tested in duplicates. Percentage inhibition was calculated with respect to total activity. IC50 value was calculated using Prism Software.

SMILES strings stand for the structures.

T1 sequence (P27487 whole entry): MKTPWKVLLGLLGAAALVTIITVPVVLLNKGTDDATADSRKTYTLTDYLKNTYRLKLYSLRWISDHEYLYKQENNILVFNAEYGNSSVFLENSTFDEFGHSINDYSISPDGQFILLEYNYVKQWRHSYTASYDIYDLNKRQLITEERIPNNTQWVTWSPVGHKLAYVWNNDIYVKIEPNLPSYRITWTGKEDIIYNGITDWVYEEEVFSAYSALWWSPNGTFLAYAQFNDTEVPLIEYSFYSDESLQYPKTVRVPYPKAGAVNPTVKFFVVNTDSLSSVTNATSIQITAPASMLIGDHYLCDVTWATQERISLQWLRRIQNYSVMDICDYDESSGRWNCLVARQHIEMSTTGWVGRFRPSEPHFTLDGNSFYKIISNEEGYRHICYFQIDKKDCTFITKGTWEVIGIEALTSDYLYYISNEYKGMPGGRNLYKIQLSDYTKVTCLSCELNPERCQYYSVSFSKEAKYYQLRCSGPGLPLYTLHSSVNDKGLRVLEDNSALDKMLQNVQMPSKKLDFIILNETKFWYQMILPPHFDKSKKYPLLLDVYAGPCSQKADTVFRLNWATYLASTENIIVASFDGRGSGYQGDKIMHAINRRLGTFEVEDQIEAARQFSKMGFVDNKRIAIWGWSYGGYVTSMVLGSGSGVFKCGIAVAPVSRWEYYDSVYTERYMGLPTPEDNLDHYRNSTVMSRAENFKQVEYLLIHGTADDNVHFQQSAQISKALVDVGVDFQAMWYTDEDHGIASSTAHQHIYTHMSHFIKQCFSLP

A word on the inhibition: it is how much of the control response was suppressed. The term melting point denotes the temperature of the solid-liquid transition. In turn, `CC1(C)[C@H](CS(=O)(=O)c2ccc(S(C)(=O)=O)cc2)CC[C@]1(C)NCC(=O)N1CCC[C@H]1C#N` [Example 46, (S)-1-(2-((1S,3R)-1,2,2-Trimethyl-3-((4-(methylsulfonyl)phenylsulfonyl)methyl)cyclopentylamino)acetyl)pyrrolidine-2-carbonitrile] gave a melting point of 158 to 160 °C. In addition, in data set [1], the inhibition at 0.3 µM stood at 40.9%.
A word on the IC50: it is the concentration that gives 50% inhibition. `CC1(C)[C@H](NCC(=O)N2C[C@@H](F)C[C@H]2C#N)CC[C@]1(C)c1nc(-c2ccncc2)no1` [Example 71, (2S,4S)-4-Fluoro-1-(2-((1R,3S)-2,2,3-trimethyl-3-(3-(pyridin-4-yl)-1,2,4-oxadiazol-5-yl)cyclopentylamino)acetyl)pyrrolidine-2-carbonitrile] came in with a melting point of 167 to 171 °C. Moreover, the IC50 in data set [1] worked out at 22.8 nM.
`CC1(C)[C@H](Cc2noc(-c3ccc(F)cc3)n2)CC[C@]1(C)NCC(=O)N1C[C@@H](F)C[C@H]1C#N` [Example 62, (2S,4S)-4-Fluoro-1-(2-((1S,3S)-3-((5-(4-fluorophenyl)-1,2,4-oxadiazol-3-yl)methyl)-1,2,2-trimethylcyclopentylamino)acetyl)pyrrolidine-2-carbonitrile] came in with a melting point of 158 to 216 °C. For the same compound, the inhibition at 0.3 µM in data set [1] came out at 79.8%.
`CC1(C)[C@H](Cc2noc(C3CCCCC3)n2)CC[C@]1(C)NCC(=O)N1C[C@@H](F)C[C@H]1C#N` [Example 59, (2S,4S)-1-(2-((1S,3S)-3-((5-Cyclohexyl-1,2,4-oxadiazol-3-yl)methyl)-1,2,2-trimethylcyclopentylamino)acetyl)-4-fluoropyrrolidine-2-carbonitrile] registered a melting point of 152 to 153 °C. Moreover, the inhibition at 0.3 µM in data set [1] came to 67.7%.
The like results for `CC1(C)[C@@H](CNC(=O)C2CCC(F)(F)CC2)CC[C@@]1(C)NCC(=O)N1C[C@@H](F)C[C@H]1C#N` [Example 22, N-(((1S,3R)-3-(2-((2S,4S)-2-Cyano-4-fluoropyrrolidin-1-yl)-2-oxoethylamino)-2,2,3-trimethylcyclopentyl)methyl)-4,4-difluorocyclohexane carboxamide] were, in that order, 193 to 195 °C and 72.7%.
`CC(C)(C)c1nc(C[C@@H]2CC[C@](C)(NCC(=O)N3C[C@@H](F)C[C@H]3C#N)C2(C)C)no1` [Example 58, (2S,4S)-1-(2-((1S,3S)-3-((5-tert-Butyl-1,2,4-oxadiazol-3-yl)methyl)-1,2,2-trimethylcyclopentylamino)acetyl)-4-fluoropyrrolidine-2-carbonitrile] showed a melting point of 152 to 154 °C. Further, the inhibition at 0.3 µM in data set [1] was 91.4%.
Consider `CC1(C)[C@@H](CNc2ncccc2C#N)CC[C@@]1(C)NCC(=O)N1C[C@@H](F)C[C@H]1C#N` [Example 26, 2-(((1S,3R)-3-(2-((2S,4S)-2-Cyano-4-fluoropyrrolidin-1-yl)-2-oxoethylamino)-2,2,3-trimethylcyclopentyl)methylamino)nicotinonitrile], for which the melting point was 96 to 99 °C. Also, the inhibition at 0.3 µM in data set [1] stood at 63.2%.
